Read-outs that look alike come from different tables or passages of the source.
Legend:
[1] = molecular target: T1, LXRβ ligand-binding domain (Homo sapiens, UniProt P55055, DUP175-175); assay: TR-FRETβ activity assay (NCoA3 coactivator peptide recruitment); type: biochemical
T1 construct: amino acids 156-461; NP009052; made in house; host or cells: E. coli
T1 sequence (P55055 with tags, fused parts or gaps DUP175-175 limits assumed): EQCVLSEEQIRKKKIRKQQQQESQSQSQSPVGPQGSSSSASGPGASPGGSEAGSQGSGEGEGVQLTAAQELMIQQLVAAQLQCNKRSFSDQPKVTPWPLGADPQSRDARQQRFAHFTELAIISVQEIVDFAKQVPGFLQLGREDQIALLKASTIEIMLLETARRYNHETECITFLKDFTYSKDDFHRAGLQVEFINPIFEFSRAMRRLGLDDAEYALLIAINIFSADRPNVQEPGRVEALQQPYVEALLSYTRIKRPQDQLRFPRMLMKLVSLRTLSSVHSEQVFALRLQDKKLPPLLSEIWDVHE
Summary of the method: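 Inverse agonism assessed by loss of coactivator recruitment, read as TR-FRET 665/615 nm after 1 h equilibration at 4 °C, in triplicate. Ten-point titration from 50 μM to 0.002 μM against LXRβ LBD (76 nM, GST fusion) prestimulated with 1 μM 24(S)-25-epoxycholesterol, with 400 nM NCoA3 peptide, pH 6.8. Sulfonyl acetic acids kept as 20 mM DMSO stocks with 100 mM TFA.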

[2] = Short term HFD mouse model: plasma and liver exposure; type: in vivo, mice (C57BL/6J); settings: HFD mice, 4 h after last dose
Procedure: Short Term HFD Mouse Model:
The in vivo transcriptional regulation of several LXR target genes by LXR modulators was assessed in mice.
For this, C57BL/6J were purchased from Elevage Janvier (Rennes, France) at the age of 8 weeks. After an acclimation period of two weeks, animals were preferred on a high fat diet (HFD) (Ssniff Spezialdiäten GmbH, Germany, Surwit EF D12330 mod, Cat. No. E15771-34), with 60 kcal % from fat plus 1% (w/w) extra cholesterol (Sigma-Aldrich, St. Louis, Mo.) for 5 days. Animals were maintained on this diet during treatment with LXR modulators. The test compounds were formulated in 0.5% hydroxypropylmethylcellulose (HPMC) and administered in three doses (from 1.5 to 20 mg/kg each) by oral gavage according to the following schedule: on day one, animals received treatment in the morning and the evening (ca. 17:00), on day two animals received the final treatment in the morning after a 4 h fast and were sacrificed 4 h thereafter. Animal work was conducted according to the national guidelines for animal care in Germany.
Upon termination, liver was collected, dipped in ice cold PBS for 30 seconds and cut into appropriate pieces. Pieces were snap frozen in liquid nitrogen and stored at −80° C. For the clinical chemistry analysis from plasma, alanine aminotransferase (ALT, IU/mL), cholesterol (CHOL, mg/dL) and triglycerides (TG, mg/dL) were determined using a fully-automated bench top analyzer (Respons®910, DiaSys Greiner GmbH, Flacht, Germany) with system kits provided by the manufacturer.

[3] = 1 μM 24(S)-25-epoxycholesterol as prestimulating agonist
[4] = 1 μM 24(S)-25-epoxycholesterol as prestimulating agonist, read-out: FRETβ potency
[5] = TR-FRET, 1 μM 24(S)-25-epoxycholesterol prestimulation, read-out: FRETβ (EC50 range)

Row | Compound | FRETβ efficacy (value in brackets) [1, 3] [%] | EC50 [1, 4] [µM] | EC50 [1, 5] [µM] | liver exposure 4 h ([2]; three oral doses of 20 mg/kg) | liver/plasma ratio 4 h ([2]; three oral doses of 20 mg/kg) | plasma exposure 4 h ([2]; three oral doses of 20 mg/kg) | liver exposure 4 h ([2]; three oral doses of 10 mg/kg) | liver/plasma ratio 4 h ([2]; three oral doses of 10 mg/kg) | plasma exposure 4 h ([2]; three oral doses of 10 mg/kg)
1 | Cc1ccc(S(=O)(=O)n2c(-c3cccc(N4CC(C(=O)O)C4)c3)c(-c3ccsc3C#N)c3cc(F)ccc32)cc1 [3/32] | −98 | 0.551 | 0.1 to 1 | – | – | – | – | – | –
2 | Cc1ccc(S(=O)(=O)n2c(-c3cccc(N4CC(C(=O)O)C4)c3)c(-c3ccsc3C#N)c3cc(F)c(F)cc32)cc1 [3/42] | – | – | 1 to 10 | – | – | – | – | – | –
3 | Cc1ccc(S(=O)(=O)n2c(-c3cccc(N4CC(C(=O)O)C4)c3)c(-c3ccsc3C#N)c3cc(F)c(Cl)cc32)cc1 [3/43] | – | – | 1 to 10 | – | – | – | – | – | –
4 | Cc1ccc(S(=O)(=O)n2c(-c3cccc(N4CC(C(=O)O)C4)c3)c(-c3ccsc3C#N)c3cc(Cl)ccc32)cc1 [3/44] | – | – | 1 to 10 | – | – | – | – | – | –
5 | Cc1ccc(S(=O)(=O)n2c(-c3cccc(N4CC(C(=O)O)C4)c3)c(-c3ccsc3C#N)c3cc(C)ccc32)cc1 [3/46] | – | – | 0.1 to 1 | – | – | – | – | – | –
6 | Cc1ccc(S(=O)(=O)n2c(-c3cccc(-c4ccc(C(=O)O)cc4Cl)c3)c(-c3ccsc3C#N)c3cc(F)ccc32)cc1 [3/48] | – | – | 0.1 to 1 | C (1 μM to ≤10 μM) | C (30 to ≤100) | D (D: <100 nM) | – | – | –
7 | O=C(O)c1ccc(-c2cccc(-c3c(-c4ccccc4C4COC4)c4cc(F)ccc4n3S(=O)(=O)c3ccc(C(F)F)cc3)c2)c(Cl)c1 [3/59] | – | – | < 0.1 | C (1 μM to ≤10 μM) | B (5 to ≤30) | C (C: 100 nM to <300 nM) | – | – | –
8 | Cc1ccc(S(=O)(=O)n2c(-c3cccc(C45CCC(C(=O)O)(CC4)CC5)c3)c(-c3ccsc3C#N)c3cc(F)ccc32)cc1 [3/64] | – | – | 0.1 to 1 | D (>10 μM) | D (>100) | C (C: 100 nM to <300 nM) | – | – | –
9 | N#Cc1cccc(C#N)c1-c1c(-c2cccc(-c3c(F)cc(CC(=O)O)cc3F)c2)n(S(=O)(=O)c2ccc(C(F)F)cc2)c2ccc(F)cc12 [3/73] | – | – | < 0.1 | – | – | – | B (300 nM to ≤1 μM) | C (30 to ≤100) | D (D: <100 nM)
10 | Cc1ccc(S(=O)(=O)n2c(-c3cccc(-c4ccc(C(=O)O)cc4)c3)c(-c3ccsc3C#N)c3cc(F)ccc32)cc1 [5/3] | – | – | 0.1 to 1 | C (1 μM to ≤10 μM) | B (5 to ≤30) | D (D: <100 nM) | – | – | –
11 | CC(=O)NS(=O)(=O)c1ccc(-c2cccc(-c3c(-c4c(C#N)cccc4C#N)c4cc(F)ccc4n3S(=O)(=O)c3ccc(C(F)F)cc3)c2)c(Cl)c1 [8/8] | – | – | < 0.1 | – | – | – | B (300 nM to ≤1 μM) | B (5 to ≤30) | C (C: 100 nM to <300 nM)
12 | N#Cc1cccc(C#N)c1-c1c(-c2cccc(-c3ccc(C(=O)NCCS(=O)(=O)O)cc3Cl)c2)n(S(=O)(=O)c2ccc(C(F)F)cc2)c2ccc(F)cc12 [10/1] | – | – | < 0.1 | – | – | – | B (300 nM to ≤1 μM) | C (30 to ≤100) | D (D: <100 nM)
13 | CN(CCS(=O)(=O)O)C(=O)c1ccc(-c2cccc(-c3c(-c4c(C#N)cccc4C#N)c4cc(F)ccc4n3S(=O)(=O)c3ccc(C(F)F)cc3)c2)c(Cl)c1 [10/2] | – | – | < 0.1 | – | – | – | D (>10 μM) | B (5 to ≤30) | D (D: <100 nM)
14 | N#Cc1nccnc1-c1c(-c2cccc(-c3cc(F)c(C(=O)O)cc3Cl)c2)n(S(=O)(=O)c2ccc(C(F)F)cc2)c2ccc(F)cc12 [11/11] | – | – | < 0.1 | D (>10 μM) | D (>100) | D (D: <100 nM) | – | – | –
15 | N#Cc1cccc(C#N)c1-c1c(-c2cccc(-c3ccc(C(=O)O)cc3Cl)c2)n(S(=O)(=O)c2ccc(C(F)F)cc2)c2ccc(F)cc12 [11/12] | – | – | < 0.1 | C (1 μM to ≤10 μM) | C (30 to ≤100) | D (D: <100 nM) | – | – | –
16 | O=C(O)c1ccc(-c2cccc(-c3c(-c4c(Cl)cccc4Cl)c4cc(F)ccc4n3S(=O)(=O)c3ccc(C(F)F)cc3)c2)c(Cl)c1 [11/13] | – | – | < 0.1 | C (1 μM to ≤10 μM) | A (<5) | A (A: >1 μM) | – | – | –
17 | N#Cc1sccc1-c1c(-c2cccc(-c3ccc(C(=O)O)cc3Cl)c2)n(S(=O)(=O)c2ccc(C(F)(F)F)nc2)c2ccc(F)cc12 [11/16] | – | – | 0.1 to 1 | C (1 μM to ≤10 μM) | B (5 to ≤30) | C (C: 100 nM to <300 nM) | – | – | –
18 | O=C(O)c1ccc(-c2cccc(-c3c(-c4ncccc4C(F)(F)F)c4cc(F)ccc4n3S(=O)(=O)c3ccc(C(F)F)cc3)c2)c(Cl)c1 [11/23] | – | – | < 0.1 | C (1 μM to ≤10 μM) | B (5 to ≤30) | C (C: 100 nM to <300 nM) | – | – | –
19 | N#Cc1cccnc1-c1c(-c2cccc(-c3ccc(C(=O)O)cc3Cl)c2)n(S(=O)(=O)c2ccc(C(F)F)cc2)c2ccc(F)cc12 [11/26] | – | – | < 0.1 | – | – | – | C (1 μM to ≤10 μM) | C (30 to ≤100) | C (C: 100 nM to <300 nM)
20 | COc1c(C(=O)O)ccc(-c2cccc(-c3c(-c4ccccc4C#N)c4cc(F)ccc4n3S(=O)(=O)c3ccc(C(F)F)cc3)c2)c1Cl [11/27] | – | – | < 0.1 | C (1 μM to ≤10 μM) | C (30 to ≤100) | D (D: <100 nM) | – | – | –
21 | N#Cc1ccccc1-c1c(-c2cccc(-c3ccc(C(=O)O)cc3Cl)c2)n(S(=O)(=O)c2ccc(C(F)F)cc2)c2ccc(F)cc12 [11/33] | −99 | 0.019 | < 0.1 | C (1 μM to ≤10 μM) | C (30 to ≤100) | C (C: 100 nM to <300 nM) | – | – | –
22 | N#Cc1cccc(C#N)c1-c1c(-c2cccc(-c3ccc(C(=O)O)cc3Cl)c2)n(S(=O)(=O)c2ccc(C(F)(F)F)nc2)c2ccc(F)cc12 [11/37] | – | – | < 0.1 | – | – | – | C (1 μM to ≤10 μM) | C (30 to ≤100) | D (D: <100 nM)
23 | N#Cc1ccccc1-c1c(-c2cccc(-c3ccc(C(=O)O)cc3Cl)c2)n(S(=O)(=O)c2ccc(C(F)F)cc2)c2cnccc12 [11/49] | – | – | < 0.1 | C (1 μM to ≤10 μM) | D (>100) | D (D: <100 nM) | – | – | –
24 | N#Cc1cccc(C#N)c1-c1c(-c2cccc(-c3ccc(C(=O)O)cc3F)c2)n(S(=O)(=O)c2ccc(C(F)F)cc2)c2ccc(F)cc12 [11/51] | – | – | < 0.1 | – | – | – | C (1 μM to ≤10 μM) | C (30 to ≤100) | D (D: <100 nM)
25 | N#Cc1cccc(C#N)c1-c1c(-c2cccc(-c3c(F)cc(C(=O)O)cc3F)c2)n(S(=O)(=O)c2ccc(C(F)F)cc2)c2ccc(F)cc12 [11/53] | – | – | < 0.1 | – | – | – | C (1 μM to ≤10 μM) | C (30 to ≤100) | D (D: <100 nM)
26 | N#Cc1cccc(C#N)c1-c1c(-c2cccc(-c3ccc(C(=O)O)cc3Cl)c2)n(S(=O)(=O)C2CCC(F)(F)CC2)c2ccc(F)cc12 [11/63] | – | – | 0.1 to 1 | – | – | – | C (1 μM to ≤10 μM) | B (5 to ≤30) | D (D: <100 nM)

— patent US11618747B2, “LXR modulators with bicyclic core moiety” (OrsoBio, Inc., priority 2018, dated 2023)
